Laboratory results as given in PubChem BioAssay (NCI).
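Step 1: Grow cells in 96-well plates. Step 2: Expose to compound for 48 hours at 5 concentrations. Step 3: Interpolate endpoints linearly; if unreached, use highest concentration. The concentration for full growth arrest is given as TGI.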

How the values were obtained:
Test in all cases: DTP human tumour cell line panel, 48 h
U251 CNS = tested on: U251 CNS
BT-549 breast = tested on: BT-549 breast
A498 renal = tested on: A498 renal
NCI-H23 lung = tested on: NCI-H23 lung
PC-3 prostate = tested on: PC-3 prostate
SR leukemia = tested on: SR leukemia
SF-539 CNS = tested on: SF-539 CNS
SW-620 colon = tested on: SW-620 colon
M14 melanoma = tested on: M14 melanoma
SK-MEL-5 melanoma = tested on: SK-MEL-5 melanoma
CAKI-1 renal = tested on: CAKI-1 renal
CCRF-CEM leukemia = tested on: CCRF-CEM leukemia
SF-268 CNS = tested on: SF-268 CNS
SF-295 CNS = tested on: SF-295 CNS
SNB-75 CNS = tested on: SNB-75 CNS
SK-MEL-28 melanoma = tested on: SK-MEL-28 melanoma
OVCAR-4 ovarian = tested on: OVCAR-4 ovarian
HCC-2998 colon = tested on: HCC-2998 colon
K-562 leukemia = tested on: K-562 leukemia
OVCAR-3 ovarian = tested on: OVCAR-3 ovarian
HCT-15 colon = tested on: HCT-15 colon
NCI-H522 lung = tested on: NCI-H522 lung
UACC-62 melanoma = tested on: UACC-62 melanoma
SK-MEL-2 melanoma = tested on: SK-MEL-2 melanoma
NCI/ADR-RES ovarian = tested on: NCI/ADR-RES ovarian
MDA-MB-435 = tested on: MDA-MB-435
OVCAR-8 ovarian = tested on: OVCAR-8 ovarian
UACC-257 melanoma = tested on: UACC-257 melanoma
KM12 colon = tested on: KM12 colon
EKVX NSCLC = tested on: EKVX NSCLC
OVCAR-5 ovarian = tested on: OVCAR-5 ovarian
HS 578T breast = tested on: HS 578T breast
MCF7 breast = tested on: MCF7 breast
ACHN renal = tested on: ACHN renal
HOP-62 NSCLC = tested on: HOP-62 NSCLC
T-47D breast = tested on: T-47D breast
MDA-N = tested on: MDA-N
SNB-19 CNS = tested on: SNB-19 CNS
A549 NSCLC = tested on: A549 NSCLC
NCI-H226 lung = tested on: NCI-H226 lung
UO-31 renal = tested on: UO-31 renal
COLO 205 colon = tested on: COLO 205 colon
HOP-92 NSCLC = tested on: HOP-92 NSCLC
LOX IMVI melanoma = tested on: LOX IMVI melanoma
HCT-116 colon = tested on: HCT-116 colon
SK-OV-3 ovarian = tested on: SK-OV-3 ovarian
MDA-MB-231 breast = tested on: MDA-MB-231 breast
HL-60(TB) leukemia = tested on: HL-60(TB) leukemia
IGROV1 ovarian = tested on: IGROV1 ovarian
SN12C renal = tested on: SN12C renal
HT29 colon = tested on: HT29 colon
RPMI-8226 leukemia = tested on: RPMI-8226 leukemia
DU-145 prostate = tested on: DU-145 prostate
786-0 renal = tested on: 786-0 renal
MOLT-4 leukemia = tested on: MOLT-4 leukemia
TK-10 renal = tested on: TK-10 renal
RXF 393 renal = tested on: RXF 393 renal
MALME-3M melanoma = tested on: MALME-3M melanoma
NCI-H460 lung = tested on: NCI-H460 lung

Measured: TGI

C/C=C(/C)C(=O)O[C@H]1CCN2CC=C(COC(=O)[C@@](O)([C@H](C)OC)C(C)(C)O)[C@H]12
> 100 µM: U251 CNS | BT-549 breast | A498 renal | NCI-H23 lung | PC-3 prostate | SR leukemia | SF-539 CNS | SW-620 colon | M14 melanoma | SK-MEL-5 melanoma | CAKI-1 renal | CCRF-CEM leukemia | SF-268 CNS | SF-295 CNS | SNB-75 CNS | SK-MEL-28 melanoma | OVCAR-4 ovarian | HCC-2998 colon | K-562 leukemia | OVCAR-3 ovarian | HCT-15 colon | NCI-H522 lung | UACC-62 melanoma | SK-MEL-2 melanoma | NCI/ADR-RES ovarian | MDA-MB-435 | OVCAR-8 ovarian | UACC-257 melanoma | KM12 colon | EKVX NSCLC | OVCAR-5 ovarian | HS 578T breast | MCF7 breast | ACHN renal | HOP-62 NSCLC | T-47D breast | MDA-N | SNB-19 CNS | A549 NSCLC | NCI-H226 lung | UO-31 renal | COLO 205 colon | HOP-92 NSCLC | LOX IMVI melanoma | HCT-116 colon | SK-OV-3 ovarian | MDA-MB-231 breast | HL-60(TB) leukemia | IGROV1 ovarian | SN12C renal | HT29 colon | RPMI-8226 leukemia | DU-145 prostate | 786-0 renal | MOLT-4 leukemia | TK-10 renal

COC(=O)C1=C(O)C(C(=O)OC)[C@@]2(O)[C@@H](C(=O)OC)C(c3ccc(OC(=O)/C=C/c4ccccc4)cc3)C[C@@H]1[C@@H]2C(=O)OC (stereo partly drawn)
94 µM: OVCAR-3 ovarian
22.6 µM: UACC-62 melanoma
73 µM: CAKI-1 renal
63.6 µM: MDA-MB-231 breast
30.5 µM: M14 melanoma
33.6 µM: TK-10 renal
22.5 µM: SR leukemia
21.9 µM: SK-MEL-2 melanoma
25.5 µM: UO-31 renal
37.7 µM: EKVX NSCLC
19.1 µM: RXF 393 renal
60.1 µM: BT-549 breast | NCI-H226 lung
7.8 µM: NCI-H460 lung
23.4 µM: COLO 205 colon
> 100 µM: A498 renal | NCI-H23 lung | PC-3 prostate | SW-620 colon | CCRF-CEM leukemia | SF-268 CNS | SF-295 CNS | SNB-75 CNS | SK-MEL-28 melanoma | OVCAR-4 ovarian | MALME-3M melanoma | K-562 leukemia | NCI-H522 lung | NCI/ADR-RES ovarian | MDA-MB-435 | OVCAR-8 ovarian | KM12 colon | HS 578T breast | MCF7 breast | ACHN renal | HOP-62 NSCLC | T-47D breast | SNB-19 CNS | A549 NSCLC | HOP-92 NSCLC | SK-OV-3 ovarian | IGROV1 ovarian | DU-145 prostate
17.8 µM: HCT-116 colon
32.6 µM: HL-60(TB) leukemia
13.1 µM: MDA-N
30.2 µM: OVCAR-5 ovarian
42.5 µM: 786-0 renal
25.4 µM: UACC-257 melanoma
28.5 µM: U251 CNS
28.8 µM: SK-MEL-5 melanoma
5.75 µM: LOX IMVI melanoma
8.86 µM: SF-539 CNS
46.7 µM: HCT-15 colon
17 µM: HT29 colon
27.3 µM: HCC-2998 colon | SN12C renal
